Assay results reported in patent publication US20090068258A1, “Caveolin-mimetic peptide for prevention and treatment of pulmonary hypertension and right ventricular hypertrophy” (priority 2007, published 2009).
Residues, ends and D or L forms follow the SMILES beside them. *: point of attachment. Biotin = O=C1N[C@H]2[C@H](CS[C@H]2CCCCC(=O)*)N1

Key:
rats with MCT-induced PH = assay: Hemodynamic and morphometric variables in rats with MCT-induced PH; format: in vivo, Sprague-Dawley rats; details: MCT 60 mg/kg ip rats, peptide 2.5 mg/kg/d ip for 2 weeks; for RV/LV+septum weight ratio: Control rats 25.3±0.5, MCT rats 31.1±0.6; for RV systolic pressures: Control rats 26.0±0.9, MCT rats 40.2±1.5; for BW (body weight) / CVP (central venous pressure) / Dry lung weight/BW / Dry/wet lung weight / HR (heart rate) / LV(+)dP/dt / LV(−)dP/dt / LV/BW / LVEDP (LV-end diastolic pressure) / MAP (mean arterial pressure) / RV(+)dP/dt / RV(−)dP/dt / RV/BW / RVEDP (RV-end diastolic pressure) / Wet lung weight/BW: mean±S.E.M.
Description: (§1) Male Sprague-Dawley rats (Charles River, Wilmington, Mass.) weighing between 250-300 g received a single intraperitoneal (ip) injection of either 0.5 ml 0.9% NaCl or 0.5 ml 60 mg/kg MCT. Thirty minutes later, rats were randomly assigned to receive a daily ip injection of either 0.5 ml 0.9% NaCl, 0.5 ml AP (2.5 mg/kg/d) or 0.5 ml AP-Cav (2.5 mg/kg/d) for 2 weeks.
(§2) At two weeks, rats were anesthetized with xylazine (10 mg/kg)-ketamine (50 mg/kg) followed by 2000 U heparin (Sigma-Aldrich). The right jugular vein and carotid artery were then isolated and incised, and millar catheters (SPR-249, Millar Instruments, Houston, Tex.) were advanced into the right and left ventricles (RV and LV) for hemodynamic measurements. The RV and LV pressures were recorded with the Ponemah P3-Data acquisition system (LDS Test and Measurement, Middleton, Wis.).
(§3) Afterwards, the lower lobe of the right lung and the heart were dissected and weighed to respectively determine pulmonary edema and RV hypertrophy, as previously described^11. The remaining lobes of the right lung were submerged in liquid nitrogen and frozen at −80° C. The left pulmonary artery was then cannulated and perfused with 4% paraformaldehyde (PFA) for 2 min. This was followed by perfusion of the airways with 4% PFA for 2 min. The left lung was then immersed in 4% PFA for 24 hours.
(§4) Statistical Analysis. Hemodynamic and morphometric variables as well as the mean gray value of each western blot are expressed as mean±S.E.M. Differences between the 5 groups were evaluated by ANOVA, followed by Tukey's multiple-group comparisons test. Statistical significance was assumed at p<0.05.

Control rats = assay: Hemodynamic and morphometric variables in Control rats (0.9% NaCl instead of MCT); format: in vivo, Sprague-Dawley rats
Description: as §1, §2, §3, §4

Cav-1 [1] = assay: Immunoblot analysis of lung Cav-1 protein levels in MCT rats; format: in vivo, Sprague-Dawley rats
Description: as §1
(§5) Immunoblot Analysis. Lung samples from Control (n=17), Control+AP-Cav (n=10), MCT (n=25), MCT+AP (n=19), and MCT+AP-Cav (n=24) groups were homogenized in a RIPA lysis buffer containing protease and phosphatase inhibitors. Proteins were then separated by SDS-PAGE (12% acrylamide) and transferred to nitrocellulose membranes. The membranes were placed in blocking solution for 30 min. Afterwards, the membranes were washed and incubated with a given primary antibody for 1 hour (Cav-1, -2 and β-actin) or 3 hours (eNOS, STAT3, PY-STAT3, cyclin D1, and cyclin D3). […] Western blots for Cav-1, Cav-2, eNOS, PY-STAT3, cyclin D1 and cyclin D3 were subsequently quantitated using the NIH Image J software (using the mean gray value for each band).
(§6) Statistical Analysis. Hemodynamic and morphometric variables as well as the mean gray value of each western blot are expressed as mean±S.E.M. Differences between the 5 groups were evaluated by ANOVA, followed by Tukey's multiple-group comparisons test. […]

Cav-2 [2] = assay: Immunoblot analysis of lung Cav-2 protein levels in MCT rats; format: in vivo, Sprague-Dawley rats
Description: as §1, §5, §6

PY-STAT3 = assay: Immunoblot analysis of lung PY-STAT3 in MCT rats; format: in vivo, Sprague-Dawley rats
Description: as §1, §5, §6

cyclin D1 = assay: Immunoblot analysis of lung cyclin D1 in MCT rats; format: in vivo, Sprague-Dawley rats
Description: as §1, §5, §6

cyclin D3 = assay: Immunoblot analysis of lung cyclin D3 in MCT rats; format: in vivo, Sprague-Dawley rats
Description: as §1, §5, §6

Cav-1 [3] = assay: Dual-label immunofluorescence analysis of Cav-1 in pulmonary arteries of MCT rats; format: in vivo, Sprague-Dawley rats
Description: as §1
(§7) Immunofluorescence Analysis. As mentioned above, the left lung of Control (n=17), Control+AP-Cav (n=10), MCT (n=25), MCT+AP (n=19), and MCT+AP-Cav (n=24) rats was dissected and perfused-fixed. Transverse sections were obtained and embedded with paraffin. Sections of 10 μm were cut and stained with hematoxylin and eosin (H&E).
(§8) Paraffin from 10 μm-thick sections was removed by immersion in xylene. These sections were then rehydrated with graded alcohol to water and blocked overnight. The sections were subsequently incubated with a given primary antibody for three hours. FITC- and TRITC-conjugated secondary antibodies were then added to the sections after a 15 min wash in PBS. After 1 hr of incubation with the secondary antibodies, the sections were washed in PBS and mounted using Prolong Gold antifade reagent (Molecular Probes, Carlsbad, Calif.).

Cav-2 [4] = assay: Dual-label immunofluorescence analysis of Cav-2 in pulmonary arteries of MCT rats; format: in vivo, Sprague-Dawley rats
Description: as §1, §7, §8

[5] = tested on: pulmonary arteries of MCT rats; assay: Lung vascular morphometry (percent medial wall thickness) in MCT rats; format: in vivo, Sprague-Dawley rats
Description: as §1
(§9) Lung Vascular Morphometry. H&E sections of the left lung (n=10 for each groups) were microscopically assessed for the medial wall thickness of pulmonary arteries. Measurements of the luminal diameter and the medial thickness on either side were obtained using the Image J software. Measurements were made on 30 muscular arteries (<50 μm, 51-100 μm, and 100-150 μm of external diameter) per lung section. The medial wall thickness was then related to the external diameter and expressed as percent wall thickness, as previously described^20.
as §4

[6] = tested on: pulmonary arteries of Control rats; assay: Lung vascular morphometry (percent medial wall thickness) in Control rats; format: in vivo, Sprague-Dawley rats; details: data not shown
Description: as §1, §9, §4

mice = details: in vivo delivery, previous reports (refs 17;18); cited from earlier work
[7] = Control rats (no MCT), peptide 2.5 mg/kg/d ip for 2 weeks, mean±S.E.M.

Molecule: (biotin)-RQPKTWFPNRRKPWKK-DGIWKASFTTFTVTKYWFYR (SEQ ID NO:10)—(OH) [AP-Cav]
- RV/LV+septum weight ratio (rats with MCT-induced PH): 24.6±0.5%
- RV systolic pressures (rats with MCT-induced PH): 30.1±1.3 mmHg
- BW (body weight) (rats with MCT-induced PH): 371 ± 9 g
- CVP (central venous pressure) (rats with MCT-induced PH): 3.2 ± 0.2 mmHg
- Dry lung weight/BW (rats with MCT-induced PH): 0.028 ± 0.001 %
- Dry/wet lung weight (rats with MCT-induced PH): 20.7 ± 0.3%
- HR (heart rate) (rats with MCT-induced PH): 261 ± 12 beats/min
- LV(+)dP/dt (rats with MCT-induced PH): 5766 ± 335 mmHg/s
- LV(−)dP/dt (rats with MCT-induced PH): 3891 ± 309 mmHg/s
- LV/BW (rats with MCT-induced PH): 0.200 ± 0.003%
- LVEDP (LV-end diastolic pressure) (rats with MCT-induced PH): 2.7 ± 0.3 mmHg
- MAP (mean arterial pressure) (rats with MCT-induced PH): 82.6 ± 2.9 mmHg
- RV(+)dP/dt (rats with MCT-induced PH): 1489 ± 18 mmHg/s
- RV(−)dP/dt (rats with MCT-induced PH): 1107 ± 61 mmHg/s
- RV/BW (rats with MCT-induced PH): 0.049 ± 0.001 %
- RVEDP (RV-end diastolic pressure) (rats with MCT-induced PH): 3.0 ± 0.2 mmHg
- Wet lung weight/BW (rats with MCT-induced PH): 0.132 ± 0.004 %
- BW (body weight) (Control rats; [7]): 407 ± 12 g
- CVP (central venous pressure) (Control rats; [7]): 3.1 ± 0.1 mmHg
- Dry lung weight/BW (Control rats; [7]): 0.019 ± 0.000%
- Dry/wet lung weight (Control rats; [7]): 20.8 ± 0.1%
- HR (heart rate) (Control rats; [7]): 270 ± 6 beats/min
- LV(+)dP/dt (Control rats; [7]): 6216 ± 446 mmHg/s
- LV(−)dP/dt (Control rats; [7]): 4614 ± 320 mmHg/s
- LV/BW (Control rats; [7]): 0.194 ± 0.005%
- LVEDP (LV-end diastolic pressure) (Control rats; [7]): 3.0 ± 0.3 mmHg
- MAP (mean arterial pressure) (Control rats; [7]): 79.4 ± 3.4 mmHg
- RV(+)dP/dt (Control rats; [7]): 1435 ± 60 mmHg/s
- RV(−)dP/dt (Control rats; [7]): 988 ± 46 mmHg/s
- RV/BW (Control rats; [7]): 0.050 ± 0.001%
- RVEDP (RV-end diastolic pressure) (Control rats; [7]): 2.8 ± 0.2 mmHg
- Wet lung weight/BW (Control rats; [7]): 0.091 ± 0.001%
- effect on hemodynamic and morphometric variables (Control rats; Control rats, compared to Control group receiving 0.9% NaCl alone): did not affect
- pulmonary Cav-1 protein levels (effect in words) (Cav-1 [1]; 2.5 mg/kg/d ip for 2 weeks): significantly prevented the reduction
- pulmonary Cav-2 protein levels (effect in words) (Cav-2 [2]; 2.5 mg/kg/d ip for 2 weeks): significantly prevented the reduction
- STAT3 signaling cascade (PY-STAT3) in the lungs (effect in words) (PY-STAT3; 2.5 mg/kg/d ip for 2 weeks): prevented the hyper-activation
- pulmonary cyclin D1 expression (effect in words) (cyclin D1; 2.5 mg/kg/d ip for 2 weeks): prevented the upregulation
- pulmonary cyclin D3 expression (effect in words) (cyclin D3; 2.5 mg/kg/d ip for 2 weeks): prevented the upregulation
- Cav-1 expression in pulmonary arteries (Cav-1 [3]): prevented
- Cav-2 expression in pulmonary arteries (Cav-2 [4]): prevented
- percent medial wall thickness of pulmonary arteries (effect in words) ([5]; 2.5 mg/kg/d ip for 2 weeks): significantly reduced
- percent medial wall thickness of pulmonary arteries (effect in words) [6]: had no effect
- systemic blood pressure, blood flow, and heart rate (mice): had no effect

Molecule: CC[C@H](C)[C@H](NC(=O)[C@H](CCCCN)NC(=O)[C@@H]1CCCN1C(=O)[C@H](CCC(N)=O)NC(=O)[C@H](CCCNC(=N)N)NC(=O)CCCC[C@@H]1SC[C@@H]2NC(=O)N[C@@H]21)C(=O)N[C@@H](Cc1c[nH]c2ccccc12)C(=O)N[C@@H](Cc1ccccc1)C(=O)N1CCC[C@H]1C(=O)N[C@@H](CC(N)=O)C(=O)N[C@@H](CCCNC(=N)N)C(=O)N[C@@H](CCCNC(=N)N)C(=O)N[C@@H](CCCCN)C(=O)N1CCC[C@H]1C(=O)N[C@@H](Cc1c[nH]c2ccccc12)C(=O)N[C@@H](CCCCN)C(=O)N[C@@H](CCCCN)C(=O)O [AP, (biotin)-RQPKIWFPNRRKPWKK (SEQ ID NO:1)—(OH)] (Biotin-RQPKIWFPNRRKPWKK-OH)
- RV/LV+septum weight ratio (rats with MCT-induced PH): 30.6±0.6%
- RV systolic pressures (rats with MCT-induced PH): 39.6±1.5 mmHg
- BW (body weight) (rats with MCT-induced PH): 335 ± 7 g
- CVP (central venous pressure) (rats with MCT-induced PH): 5.1 ± 0.3 mmHg
- Dry lung weight/BW (rats with MCT-induced PH): 0.033 ± 0.001 %
- Dry/wet lung weight (rats with MCT-induced PH): 19.7 ± 0.4%
- HR (heart rate) (rats with MCT-induced PH): 274 ± 12 beats/min
- LV(+)dP/dt (rats with MCT-induced PH): 6268 ± 339 mmHg/s
- LV(−)dP/dt (rats with MCT-induced PH): 4319 ± 286 mmHg/s
- LV/BW (rats with MCT-induced PH): 0.200 ± 0.004%
- LVEDP (LV-end diastolic pressure) (rats with MCT-induced PH): 2.7 ± 0.3 mmHg
- MAP (mean arterial pressure) (rats with MCT-induced PH): 85.3 ± 4.4 mmHg
- RV(+)dP/dt (rats with MCT-induced PH): 1931 ± 78 mmHg/s
- RV(−)dP/dt (rats with MCT-induced PH): 1395 ± 72 mmHg/s
- RV/BW (rats with MCT-induced PH): 0.061 ± 0.002 %
- RVEDP (RV-end diastolic pressure) (rats with MCT-induced PH): 5.1 ± 0.3 mmHg
- Wet lung weight/BW (rats with MCT-induced PH): 0.170 ± 0.007 %
- decrease of Cav-1 protein levels in the lungs (Cav-1 [1]; vs Control rats): ~3 fold
- decrease of Cav-2 protein levels in the lungs (Cav-2 [2]; vs Control rats): ~2 fold
- increased levels of PY-STAT3 in the lungs (PY-STAT3; vs Control rats): ~5 fold
- increase in cyclin D1 protein levels in the lungs (cyclin D1; vs Control rats): ~4 fold
- increase in cyclin D3 protein levels in the lungs (cyclin D3; vs Control rats): ~4 fold
- Cav-1 expression in pulmonary arteries (Cav-1 [3]): marked reductions
- Cav-2 expression in pulmonary arteries (Cav-2 [4]): marked reductions
- increased percent medial wall thickness of pulmonary arteries ([5]; arteries <50 μm, 51-100 μm, 100-150 μm, vs Control rats): 2-3 fold
